For one test, the target named is T1, Aβ(1-42) oligomers (Homo sapiens, UniProt P05067).
T1 construct: oligomers and fibrils being composed of a 1:10 ratio of biotinylated Aβ(1-42) to non-biotinylated Aβ(1-42)
Kind of test: SPR single-cycle kinetics on immobilized Aβ(1-42) oligomers. The settings on record: oligomers by density gradient centrifugation, 1356 RU immobilized, heterogeneous binding model, two sites. The protocol: (§1) The results can be obtained by surface plasmon resonance or by biolayer interferometry. In the case of surface plasmon resonance, regeneration steps between individual analyte injections are circumvented by carrying out the interaction studies using the “single-cycle kinetics” measurement method. Thus, advantageously, different analyte concentrations are injected directly one after the other.
(§2) In order to ensure a homogeneous sample preparation, monomers and oligomers were separated by means of size exclusion chromatography (SEC), and fibrils were separated from other forms by means of density gradient centrifugation. The immobilization on streptavidin-loaded SPR sensor surfaces took place by using biotinylated Aβ(1-42), oligomers and fibrils being composed of a 1:10 ratio of biotinylated Aβ(1-42) to non-biotinylated Aβ(1-42).
(§3) The lyophilized samples of N-terminally biotinylated Aβ(1-42) and non-biotinylated Aβ(1-42) were each dissolved separately from one another in 100% hexafluoroisopropanol (HIFP) and incubated overnight at room temperature. The volumes required for a 1:10 ratio were then combined and the HFIP was evaporated off using a concentrator.
(§4) For the preparation of monomeric and oligomeric Aβ(1-42), the previously obtained pellet was taken up in the size exclusion chromatography buffer (50 mM sodium phosphate buffer, 150 mM NaCl, 0.6% Tween 20, pH 7.4) and briefly centrifuged for 30 seconds at 15500 g in order to sediment insoluble material.
(§5) The supernatant after the centrifugation step at the end of the preparation of monomeric and oligomeric Aβ(1-42) was then applied directly to a Superdex 75 10/300 GL (GE Healthcare) column for chromatographic separation. The flow rate during the elution with size exclusion chromatography buffer was 0.8 ml/min. Monomers eluted at ˜14 ml, whereas oligomers eluted at ˜8 ml.
(§6) The density gradient was prepared by subsequently layering over the density gradient solution (iodixanol diluted in 10 mM sodium phosphate buffer pH 7.4) in concentrations of 50% (260 μl), 40% (260 μl), 30% (260 μl), 20% (260 μl), 10% (260 μl) and 5% (100 μl) (v/v). The samples were then pipetted onto the density gradient and centrifugation was carried out for 3 hours at 4° C. and 259000 g. A total of 14 fractions, each of 140 μl, was then removed from the density gradient from top to bottom. Monomers are found in the first fraction, oligomers are found in fractions 5 and 6, and fibrils are found typically in fractions 11-13.
(§7) The monomers are biotinylated C-terminally, unlike the oligomers and fibrils (N-terminally). The response units (Y-axis) were plotted against the time in seconds (X-axis), wherein the black curves represent the double-referenced experimental data and the gray superposed curves represent the fits. […]

A further test concerns the target T2, Aβ(1-42) monomers (Homo sapiens, UniProt P05067).
T2 construct: sensor surfaces containing immobilized Aβ(1-42) monomers, oligomers and fibrils
Kind of test: SPR single-cycle kinetics on immobilized Aβ(1-42) monomers. The settings on record: monomers by density gradient centrifugation, 1423 RU immobilized, heterogeneous binding model, two sites. On the procedure: as §1, §2, §3, §4, §5, §6, §7

The target in the next test is T3, Aβ(1-42) fibrils (Homo sapiens, UniProt P05067).
T3 construct: oligomers and fibrils being composed of a 1:10 ratio of biotinylated Aβ(1-42) to non-biotinylated Aβ(1-42)
Kind of test: SPR single-cycle kinetics on immobilized Aβ(1-42) fibrils. As to conditions: fibrils by density gradient centrifugation, 1324 RU immobilized, binding model with three binding sites. The protocol:
as §1, §2, §3
For the preparation of fibrillar Aβ(1-42), the pellets obtained after the evaporation were dissolved in 10 mM sodium phosphate buffer pH 7.4 and incubated for 24 hours at 25° C. and at 600 rpm.
as §6
The monomers are biotinylated C-terminally, unlike the oligomers and fibrils (N-terminally). The response units (Y-axis) were plotted against the time in seconds (X-axis), wherein the black curves represent the double-referenced experimental data and the gray superposed curves represent the fits. For characterizing the scFv-IC16, therefore, measurements using biotinylated Aβ(1-42) are possible; C-terminally biotinylated Aβ(1-42) was used here. For fitting to monomers, a 1:1 Langmuir binding model was used and oligomers and fibrils were fitted to a heterogeneous binding model which takes account of two different binding sites on the sensor surface. It can clearly be seen that the fits coincide very well with the experimental data. This is direct evidence of the successful immobilization of the various forms and the respectively homogeneous surface.
The index a1 and d1 refer respectively to the association and dissociation rate of the antibody fragment scFv-IC16 on the respective exposed epitope of the conformer. The index a2 and d2, on the other hand, refer respectively to the association and dissociation rate of the antibody fragment scFv-IC16 on discontinuous epitopes of the respective conformer. Analogously, the indices D1 and D2 refer to the dissociation constants on the continuous and discontinuous epitope.
The D-enantiomeric peptide D7 was identified by a mirror image […] selection and analyzed using the method described above with regard to the binding properties, by way of example as a substance to be tested. In a manner differing from the measurement data in FIG. 3, in this case, all the different Aβ(1-42) conformers (monomers, oligomers and fibrils) were prepared by means of density gradient centrifugation and immobilized in various quantities on the sensor surface. In the case of the monomers, 1423 RU were immobilized, in the case of the oligomers 1356 RU, and in the case of the fibrils 1324 RU. […]

Where [1] appears, read: sub-reaction 1, read-out: ka1 association rate.
Setting [2] is: sub-reaction 1, read-out: kd1 dissociation rate.
Where [3] appears, read: sub-reaction 2, read-out: ka2 association rate.
Setting [4] is: sub-reaction 2, read-out: kd2 dissociation rate.

Structures are written as SMILES. Like-named read-outs stand apart in the source and are kept apart here. Square brackets hold non-standard residues; d marks the D form. Peptide text beside a SMILES is read from it.

T2 sequence (P05067 672-713 limits assumed): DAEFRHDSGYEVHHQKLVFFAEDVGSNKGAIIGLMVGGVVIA
T3 sequence (P05067 672-713 limits assumed): as above
T1 sequence (P05067 672-713 limits assumed): as above

In the case of `CSCC[C@@H](NC(=O)[C@@H](Cc1c[nH]cn1)NC(=O)[C@@H](Cc1ccc(O)cc1)NC(=O)[C@H](NC(=O)[C@@H](Cc1ccc(O)cc1)NC(=O)[C@@H](Cc1ccc(O)cc1)NC(=O)[C@@H](CCC(=O)O)NC(=O)[C@@H](Cc1ccccc1)NC(=O)[C@@H](CCCNC(=N)N)NC(=O)[C@H](NC(=O)[C@H](N)Cc1c[nH]cn1)[C@H](C)O)C(C)C)C(=O)N[C@H](CO)C(=O)O` [D7, htrfeyyvyhms] (H-[dH][dT][dR][dF][dE][dY][dY][dV][dY][dH][dM][dS]-OH; N-terminus and C-terminus assumed), the kon on Aβ(1-42) oligomers (setting [1]) worked out at 4520 M⁻¹ s⁻¹; at Aβ(1-42) oligomers (setting [3]), 66200 M⁻¹ s⁻¹; on Aβ(1-42) monomers (setting [1]) it was 2420 M⁻¹ s⁻¹; at Aβ(1-42) monomers (setting [3]) it was 100000 M⁻¹ s⁻¹; at Aβ(1-42) fibrils (setting [1]), 18200 M⁻¹ s⁻¹; at Aβ(1-42) fibrils (setting [3]), 1320 M⁻¹ s⁻¹. Besides, at Aβ(1-42) fibrils (sub-reaction 3, read-out: ka3 association rate), the kon came out at 32300 M⁻¹ s⁻¹. For the same compound, the koff on Aβ(1-42) oligomers (setting [2]) came to 0.000402 s⁻¹; on Aβ(1-42) oligomers (setting [4]), 0.0153 s⁻¹; on Aβ(1-42) monomers (setting [2]), 0.000364 s⁻¹; on Aβ(1-42) monomers (setting [4]), 0.00928 s⁻¹; at Aβ(1-42) fibrils (setting [2]) it was 0.262 s⁻¹; on Aβ(1-42) fibrils (setting [4]) it was 0.000193 s⁻¹. Moreover, the koff on Aβ(1-42) fibrils (sub-reaction 3, read-out: kd3 dissociation rate) worked out at 0.0125 s⁻¹.
